# Read-outs that look alike come from different tables or passages of the source.
# System: L1210 Leukämiezellen
# Test: Colony formation of L1210 leukemia cells in soft agar
# Format: cell-based, Maus
# Conditions: for IC50: Mus musculus
# From the text: Die zytostatische Wirksamkeit der erfindungsgemäßen Verbindungen wurde anhand von L1210 Leukämiezellen der Maus getestet. Hierzu wurde die Koloniebildung von L1210 Leukämiezellen in Agarplatten herangezogen. Diese Methode dient zum Nachweis des Einflusses der Testsubstanzen auf das Wachstumsverhalten der Zellen nach Inkubation von 1 Stunde oder über mehrere Generationen. Bei einer Zelzykluszeit von 10-12 Stunden werden dabei in der Testzeit von 7 Tagen etwa 14 aufeinanderfolgende Generationen beobachtet. Die erfindungsgemäßen zytostatisch wirksamen Substanzen bewirken in diesem Test eine Reduktion der zu beobachtenden Koloniezahl gegenüber einer unbehandelten Kontrollprobe.
# Einzelheiten des Testverfahrens ergeben sich aus der nachfolgenden Verfahrensweise zur Ermittlung der Koloniebildung.
# Verfahrensweise zur Ermittlung der Koloniebildung von L1210 Leukämiezellen in Soft-Agar
# 500 Leukämiezellen pro Platte wurden mit unterschiedlichen Konzentrationen der Testsubstanz 1 Stunde bei 37°C inkubiert. Anschließend wurden die Zellen zweimal mit McCoy5A-Medium gewaschen und schließlich in Petrischalen nach Zugabe von 0,3 % Agar ausgegossen. Kontrollen wurden lediglich mit frischem Medium inkubiert. Anstelle der einstündigen Inkubation wurden in manchen Fällen unterschiedliche Konzentrationen und Testsubstanzen der oberen Agarschicht zugemischt, um so eine kontinuierliche Exposition der Zellen über die gesamte Inkubationszeit zu erreichen. Nach Erstarren des Agars wurden die Platten im Brutschrank 7 Tage bei 37°C inkubiert (5 Vol.-% CO₂, 94 % relative Luftfeuchtigkeit). Anschließend wurde die Zahl der entstandenen Kolonien mit einem Durchmesser von mehr als 60 µm gezählt. Die Ergebnisse wurden angegeben als Koloniezahl in behandelten Agarplatten in Prozent der unbehandelten Kontrolle. Aus der so erhaltenen Dosiswirkungskruve wurde die IC₅₀ als Maß für die Wirksamkeit der Substanz ermittelt. Die Ergebnisse für die hier beschriebenen Verbindungen im Vergleich zu Adriamycin sind in der nachfolgenden Tabelle 1 zusammengefaßt.
# [1] = L1210, 1 h incubation with substance at 37°C, cells washed twice, then plated in 0,3 % agar for 7 days, colonies > 60 µm counted, read-out: 1h-Inkubation IC50
# [2] = L1210, read-out: 1h-Inkubation IC50
# [3] = L1210, 168 h, continuous exposure: substance mixed into upper agar layer for the whole 7-day incubation at 37°C, colonies > 60 µm counted, percent of untreated control, read-out: Dauerinkubation IC50
SMILES,IC50 [1],IC50 [3],further results
"CC[C@@]1(O)C[C@H](O[C@H]2C[C@H](N)[C@@H](OCc3ccccc3)[C@H](C)O2)c2c(O)c3c(c(O)c2[C@H]1O)C(=O)c1cccc(O)c1C3=O [Beispiel 48, 7-O-(4-O-Benzyl-α-L-acosaminyl)-β-rhodomycinon]",0.095 µg/mL,–,–
"CC[C@@]1(O[C@H]2C[C@H](N)[C@@H](O)[C@H](C)O2)C[C@H](O[C@H]2C[C@H](N)[C@@H](O)[C@H](C)O2)c2c(O)c3c(c(O)c2[C@H]1O[C@H]1C[C@H](N)[C@@H](O)[C@H](C)O1)C(=O)c1cccc(O)c1C3=O [Beispiel 44, 7,9,10-Tri-O-α-L-acosaminyl-β-rhodomycinon]",–,–,IC50 [2]: > 1 µg/mL
"CC[C@@]1(O)C[C@H](O[C@H]2C[C@H](NC(=O)C(F)(F)F)C[C@H](C)O2)c2c(O)c3c(c(O)c2[C@H]1O)C(=O)c1cccc(O)c1C3=O [Beispiel 52, 7-O-(4-Desoxy-3-N-trifluoracetyl-α-L-daunosaminyl)-β-rhodomycinon]",0.66 µg/mL,–,–
"CC[C@@]1(O)C[C@H](O[C@H]2C[C@H](N)[C@@H](O)[C@H](C)O2)c2c(O)c3c(c(O)c2[C@H]1O[C@H]1C[C@H](N)[C@@H](O)[C@H](C)O1)C(=O)c1cccc(O)c1C3=O [Beispiel 33, 7,10-Di-O-α-L-acosaminyl-β-rhodomycinon]",> 1 µg/mL,> 1 µg/mL,–
"CC[C@@]1(O)C[C@H](O[C@@H]2O[C@@H](C)[C@@H](OC(C)=O)[C@@H](OC(C)=O)[C@H]2I)c2c(O)c3c(c(O)c2[C@H]1OC1CCCCO1)C(=O)c1cccc(O)c1C3=O (stereo partly drawn) [Beispiel 24, 7-O-(3,4-Di-O-acetyl-2,6-didesoxy-2-iodo-α-L-talopyranosyl)-10-O-tetrahydropyranyl-β-rhodomycinon]",–,–,"1h-Inkubation IC50 (1 h incubation with substance at 37°C, cells washed twice, then plated in 0,3 % agar for 7 days, colonies > 60 µm counted): >1 µg/mL; Dauerinkubation IC50 (continuous exposure: substance mixed into upper agar layer for the whole 7-day incubation at 37°C, colonies > 60 µm counted, percent of untreated control): >1 µg/mL"
"CC[C@@]1(O)C[C@H](O[C@H]2C[C@H](N(C)C)[C@H](OC(=O)c3ccccc3)[C@H](C)O2)c2c(O)c3c(c(O)c2[C@H]1O[C@H]1C[C@H](NC(=O)C(F)(F)F)[C@@H](OC(=O)c2ccc([N+](=O)[O-])cc2)[C@H](C)O1)C(=O)c1cccc(O)c1C3=O [Beispiel 38, 7-0-(4-0-Benzoyl-α-L-rhodosaminyl)-10-0-(4-0-paranitrobenzoyl-3-N-trifluoracetyl-α-L-acosaminyl)-β-rhodomycinon]",> 1 µg/mL,> 1 µg/mL,–
"CC[C@@]1(O)C[C@H](O[C@H]2C[C@H](NC(=O)C(F)(F)F)[C@@H](OC(=O)c3ccc([N+](=O)[O-])cc3)[C@H](C)O2)c2c(O)c3c(c(O)c2[C@H]1O)C(=O)c1cccc(O)c1C3=O [Beispiel 14, 7-0-(4-0-Paranitrobenzoyl-3-N-trifluoracetyl-α-L-acosaminyl)-β-rhodomycinon]",> 1 µg/mL,0.024 µg/mL,–
"CC[C@@]1(O)C[C@H](O[C@H]2C[C@@H](N)[C@@H](O)[C@H](C)O2)c2c(O)c3c(c(O)c2[C@H]1O)C(=O)c1cccc(O)c1C3=O [Beispiel 46, 7-O-α-L-Ristosaminyl-β-rhodomycinon]",0.11 µg/mL,–,–
"CC[C@@]1(O)C[C@H](O[C@H]2C[C@H](N)[C@H](O)[C@H](C)O2)c2c(O)c3c(c(O)c2[C@H]1O[C@H]1C=C[C@@H](O)[C@H](C)O1)C(=O)c1cccc(O)c1C3=O [Beispiel 42, 10-0-(2,3,6-Tridesoxy-α-L-erythro-hex-2-enopyranosyl)-7-0-α-L-daunosaminyl-β-rhodomycinon]",–,–,"IC50 (L1210, 168 h, read-out: Dauerinkubation IC50): 0.16 µg/mL; IC50 [2]: > 1 µg/mL"
"CC[C@@]1(O)C[C@H](O[C@H]2C[C@H](N)[C@@H](O)[C@H](C)O2)c2c(O)c3c(c(O)c2[C@H]1O[C@H]1C[C@H](N)[C@H](O)[C@H](C)O1)C(=O)c1cccc(O)c1C3=O [Beispiel 37, 7-O-α-L-Acosaminyl-10-0-α-L-daunosaminyl-β-rhodomycinon]",> 1 µg/mL,> 1 µg/mL,–
"CC[C@@]1(O)C[C@H](O[C@H]2C[C@H](N(C)C)[C@H](O)[C@H](C)O2)c2c(O)c3c(c(O)c2[C@H]1O[C@H]1C[C@H](N)[C@@H](O)[C@H](C)O1)C(=O)c1cccc(O)c1C3=O [Beispiel 40, 10-0-α-L-Acosaminyl-7-0-α-L-rhodosaminyl-β-rhodomycinon]",> 1 µg/mL,0.85 µg/mL,–

# From patent publication EP0286926A2, “Semi-synthetic rhodomycins, method for their preparation and their use as cytostatics” (BEHRINGWERKE Aktiengesellschaft, priority 1987, dated 1988)
